Assay results from patent publication US20260034112A1, “MULTI-CYCLIC IRAK1 AND IRAK4 INHIBITING COMPOUNDS AND USES THEREOF” (CHILDREN'S HOSPITAL MEDICAL CENTER, priority 2022, published 2026).
Read-outs that look alike come from different tables or passages of the source.

Key:
[1] = system: IRAK1 phosphorylation in MDS/AML cells; experiment: Immunoblotting for phospho-IRAK1; type: cell-based, human; settings: MDSL cells and patient-derived AML(1714), 10 μM, 24 hours
[2] = early phase trials, cited from earlier work
[3] = system: NF-kB activity upon IL-1β stimulation (IL-1R) in THP1 NF-kB reporter cells; experiment: THP1 NF-kB reporter assay, IL-1β stimulation; type: cell-based, human; settings: for IC50: Homo sapiens
[4] = system: THP1 and MDSL cells; experiment: Growth curves with IRAK4 inhibitors; type: cell-based, human; settings: IRAK1KO versus WT MDSL (10 μM) and THP1 (20 μM)

Row | IC50 ([3]; THP-1, THP1 NF-kB reporter cells, read-out: IC50 vs. IL-1β (NF-kB activation)) [nM] | IC50 ([3]; THP-1, Table 1, unit nM, read-out: THP-1 NFkB IL1B IC50) [nM] | Compound | IRAK1 phosphorylation [1] | Complete or partial response rates ([2]; HR-MDS and AML patients) [%] | AML patients with spliceosome mutations reaching CR or CRh [2] [%] | HR-MDS patients achieving a CR [2] [%] | Span (extent of suppression of signaling through the IL-1R) ([3]; THP1 NF-kB reporter cells, IL-1β) [%] | Suppression of NF-kB signaling through the IL-1 receptor ([3]; THP1 NF-kB reporter cells, result in words) | LOG (IL1B) ([3]; Table 1, log of IL1B IC50) | Sensitivity of IRAK1KO MDS/AML cells (growth curves) [4]
1 |  |  | Cc1cc(-c2nc(C(=O)Nc3cc4oc(N5CCOCC5)nc4nc3N3CC[C@@H](O)C3)co2)ccn1 [CA-4948, emavusertib] | increased IRAK1 phosphorylation | ~40 | 40 | 57 |  |  |  | 
2 | 5.7 | 678 | CC[C@@H]1[C@H](F)C(=O)N[C@@H]1COc1nccc2cc(C(N)=O)c(OC)cc12 [PF-06650833, Zimlovisertib] |  |  |  |  | 75 | do not fully suppress | 2.83 | A similar effect was also observed
